# In publication PMC10657444, “Design and evaluation of tadpole-like conformational antimicrobial peptides” (Communications Biology, 2023):
# “And” between values parts separate entries of the source, which are not always exact repeats. Identical values can stand only once. Non-standard residues stand in square brackets, D forms with d. Residues, ends and D or L forms follow the SMILES beside them.
# Assays:
# [1] = tested on: S. aureus ATCC 25923; assay: Time-kill assay (growth curve, OD600); type: cell-based, Staphylococcus aureus; details: 16 × MIC
# Experimental: Tube was inoculated (5 × 10^6 CFU/mL) with S. aureus ATCC 25923 and incubated at 37°C under shaking. Bacterial concentration was measured at each time point (0, 1, 2, 2.5, 3, 3.5, 4, 5, 6 and 7 h) by measuring absorbance at 600 nm with a microplate reader.
# [2] = tested on: Gram-negative bacterial strains; type: cell-based; details: A. baumannii and Klebsiella pneumoniae
# Source text: (§1) Bacteria were cultivated in Luria-Bertani (LB) broth.
# [3] = tested on: K. pneumoniae ATCC 700603; assay: Membrane permeability, SYTOX Green; type: cell-based, Klebsiella pneumoniae; details: for time to highest SYTOX Green fluorescence intensity: dose-dependent
# Experimental: Fluorescent probe SYTOX^TM Green (Invitrogen/ Life Technologies, S7020) was used to analyze the effect of HT2 and RI-HT2 on membrane permeability of MRSA USA 300 and K. pneumoniae ATCC 700603 as described elsewhere. SYTOX^TM Green is a DNA binding dye that is fluorescent when bound to nucleic acids and only enters cells with compromised plasma membranes. MRSA USA 300 and K. pneumoniae ATCC 700603 were cultured in LB broth to mid log phase at 37 °C and washed with PBS and resuspended (OD595 ≈ 0.1) in the same buffer. SYTOX^TM Green was added into the cell suspension with a final concentration of 5 μM and being kept in dark for 20 min. 98 µL pre-treated cell suspension was transferred into wells of 96-well glass black plates. Then, 2 µL of compound or DMSO were added to initiate the reaction. The final concentrations of HT2 and RI-HT2 were 1 ×, 2 ×, 4 × and 8 × MIC. Fluorescence strength was measured with excitation/emission wavelength of 485/528 nm every 5 min for 60 min.
# [4] = tested on: sheep red blood cells; assay: Hemolysis assay; details: for HC10 (concentration inducing 10% hemolysis): red cells of sheep, 1 h
# [5] = tested on: MRSA; type: cell-based, Staphylococcus aureus
# Source text: as §1
# [6] = tested on: A. baumannii 1318; type: cell-based, Acinetobacter baumannii
# Source text: as §1
# [7] = tested on: A. baumannii 1337; type: cell-based, Acinetobacter baumannii
# Source text: as §1
# [8] = tested on: K. pneumoniae 3026; type: cell-based, Klebsiella pneumoniae
# Source text: as §1
structure (smiles),measurement,setting,value
CC[C@H](C)[C@H](NC(=O)[C@H](CCCNC(=N)N)NC(=O)[C@H](CCCNC(=N)N)NC(=O)[C@H](CC(C)C)NC(=O)[C@H](Cc1ccccc1)NC(=O)[C@@H](N)CCCNC(=N)N)C(=O)N[C@@H](Cc1ccccc1)C(=O)N[C@@H](Cc1ccccc1)C(=O)N[C@@H](Cc1ccccc1)C(=O)N[C@@H](Cc1ccccc1)C(N)=O [HT2] (H-RFLRRIFFFF-NH2),time to complete inhibition of bacterial growth,[1],1 h
same,"OD600, growth curve (SI Fig 2)",[1]; 0 h,0.056 and 0.082 and 0.062
same,"OD600, growth curve (SI Fig 2)",[1]; 1 h,0.082 and 0.091 and 0.066
same,"OD600, growth curve (SI Fig 2)",[1]; 2 h,0.069 and 0.072 and 0.06
same,"OD600, growth curve (SI Fig 2)",[1]; 2.5 h,0.061 and 0.073 and 0.063
same,"OD600, growth curve (SI Fig 2)",[1]; 3 h,0.083 and 0.086 and 0.085
same,"OD600, growth curve (SI Fig 2)",[1]; 3.5 h,0.066 and 0.069 and 0.083
same,"OD600, growth curve (SI Fig 2)",[1]; 4 h,0.073 and 0.083 and 0.077
same,"OD600, growth curve (SI Fig 2)",[1]; 5 h,0.07 and 0.073 and 0.058
same,"OD600, growth curve (SI Fig 2)",[1]; 6 h,0.08 and 0.081 and 0.078
same,"OD600, growth curve (SI Fig 2)",[1]; 7 h,0.077 and 0.084 and 0.075
same,"MICs against Gram-negative bacterial strains, such as A. baumannii and Klebsiella pneumoniae",[2],6.25 µM
same,Fluorescence intensity,"[3]; 2 × MIC, time 0 min",501695 and 509033 and 502622
same,Fluorescence intensity,"[3]; 2 × MIC, time 5 min",1090890 and 1043729 and 1064139
same,Fluorescence intensity,"[3]; 2 × MIC, time 10 min",1729072 and 1765938 and 1671967
same,Fluorescence intensity,"[3]; 2 × MIC, time 15 min",2450918 and 2522662 and 2381578
same,Fluorescence intensity,"[3]; 2 × MIC, time 20 min",3050480 and 3158194 and 2985766
same,Fluorescence intensity,"[3]; 2 × MIC, time 25 min",3669210 and 3714426 and 3535044
same,Fluorescence intensity,"[3]; 2 × MIC, time 30 min",4083450 and 4189312 and 4054249
same,Fluorescence intensity,"[3]; 2 × MIC, time 35 min",4565952 and 4682018 and 4543315
same,Fluorescence intensity,"[3]; 4 × MIC, time 0 min",525974 and 544262 and 540364
same,Fluorescence intensity,"[3]; 4 × MIC, time 5 min",1702985 and 1566300 and 1596913
same,Fluorescence intensity,"[3]; 4 × MIC, time 10 min",2584709 and 2629728 and 2589896
same,Fluorescence intensity,"[3]; 4 × MIC, time 15 min",4158305 and 4176033 and 4135763
same,Fluorescence intensity,"[3]; 4 × MIC, time 20 min",5327990 and 5380046 and 5341458
same,Fluorescence intensity,"[3]; 4 × MIC, time 25 min",6471332 and 6483549 and 6409400
same,Fluorescence intensity,"[3]; 4 × MIC, time 30 min",7570513 and 7493394 and 7434627
same,Fluorescence intensity,"[3]; 4 × MIC, time 35 min",8228675 and 8284610 and 8343092
same,Fluorescence intensity,"[3]; 8 × MIC, time 0 min",870465 and 760375 and 885415
same,Fluorescence intensity,"[3]; 8 × MIC, time 5 min",1479590 and 1252173 and 1198504
same,Fluorescence intensity,"[3]; 8 × MIC, time 10 min",2304082 and 2051490 and 2261553
same,Fluorescence intensity,"[3]; 8 × MIC, time 15 min",3691170 and 2983585 and 3730581
same,Fluorescence intensity,"[3]; 8 × MIC, time 20 min",5088194 and 4586923 and 5243088
same,Fluorescence intensity,"[3]; 8 × MIC, time 25 min",6892750 and 6059584 and 6984752
same,Fluorescence intensity,"[3]; 8 × MIC, time 30 min",8250478 and 7253838 and 8382724
same,Fluorescence intensity,"[3]; 8 × MIC, time 35 min",8870007 and 7712378 and 8970308
same,Fluorescence intensity,"[3]; 8 × MIC, time 40 min",10334018
same,Fluorescence intensity,"[3]; MIC, time 0 min",550162 and 549500 and 565924
same,Fluorescence intensity,"[3]; MIC, time 5 min",788019 and 747687 and 700922
same,Fluorescence intensity,"[3]; MIC, time 10 min",953632 and 962086 and 882779
same,Fluorescence intensity,"[3]; MIC, time 15 min",1211256 and 1113347 and 1136029
same,Fluorescence intensity,"[3]; MIC, time 20 min",1429978 and 1306982 and 1354221
same,Fluorescence intensity,"[3]; MIC, time 25 min",1431312 and 1479927 and 1452172
same,Fluorescence intensity,"[3]; MIC, time 30 min",1813062 and 1687978 and 1751083
same,Fluorescence intensity,"[3]; MIC, time 35 min",1966664 and 1821317 and 1900107
same,Fluorescence intensity,"[3]; MIC, time 40 min",2166119 and 2083647 and 2111537
same,time to highest SYTOX Green fluorescence intensity,[3],≤ 40 min
same,"OD450, hemolysis (Fig 2b), replicates",[4]; 6.25 µM,0.02117 (2×) and 0.02078 and 0.02133 (2×) and 0.02093
same,"OD450, hemolysis (Fig 2b), replicates",[4]; 12.5 µM,0.02313 and 0.0233
same,HC10 (concentration inducing 10% hemolysis),[4],> 100.0 µM
same,MICs against Gram-positive bacterial strains,[5],1.57 to 3.13 µM
CC[C@@H](C)[C@@H](NC(=O)[C@@H](Cc1ccccc1)NC(=O)[C@@H](Cc1ccccc1)NC(=O)[C@@H](Cc1ccccc1)NC(=O)[C@H](N)Cc1ccccc1)C(=O)N[C@H](CCCNC(=N)N)C(=O)N[C@H](CCCNC(=N)N)C(=O)N[C@H](CC(C)C)C(=O)N[C@H](Cc1ccccc1)C(=O)N[C@H](CCCNC(=N)N)C(N)=O [RI-HT2] (H-[dF][dF][dF][dF][dI][dR][dR][dL][dF][dR]-NH2; N-terminus assumed),MIC Gram- A. b 1318,[6],3.13 µM
same,MIC Gram- A. b 1337,[7],3.13 µM
same,MIC Gram- K. p 3026,[8],3.13 µM
same,Fluorescence intensity,"[3]; 2 × MIC, time 0 min",1284 and 1283 and 1287
same,Fluorescence intensity,"[3]; 2 × MIC, time 5 min",3609 and 3355 and 3304
same,Fluorescence intensity,"[3]; 2 × MIC, time 10 min",8683 and 7973 and 7881
same,Fluorescence intensity,"[3]; 2 × MIC, time 15 min",14691 and 13649 and 13959
same,Fluorescence intensity,"[3]; 2 × MIC, time 20 min",20043 and 18959 and 19659
same,Fluorescence intensity,"[3]; 2 × MIC, time 25 min",24616 and 23653 and 24172
same,Fluorescence intensity,"[3]; 2 × MIC, time 30 min",28652 and 27362 and 28393
same,Fluorescence intensity,"[3]; 2 × MIC, time 35 min",31775 and 30780 and 31899
same,Fluorescence intensity,"[3]; 4 × MIC, time 0 min",1309 and 1246 and 1149
same,Fluorescence intensity,"[3]; 4 × MIC, time 5 min",36231 and 38899 and 38058
same,Fluorescence intensity,"[3]; 4 × MIC, time 10 min",55462 and 53189 and 56098
same,Fluorescence intensity,"[3]; 4 × MIC, time 15 min",60865 and 61985 and 61514
same,Fluorescence intensity,"[3]; 4 × MIC, time 20 min",61161 and 60954 and 60896
same,Fluorescence intensity,"[3]; 4 × MIC, time 25 min",61613 and 62061 and 61850
same,Fluorescence intensity,"[3]; 4 × MIC, time 30 min",62160 and 62706 and 62610
same,Fluorescence intensity,"[3]; 4 × MIC, time 35 min",62714 and 61385 and 61471
same,Fluorescence intensity,"[3]; 8 × MIC, time 0 min",1294 and 1162 and 1248
same,Fluorescence intensity,"[3]; 8 × MIC, time 5 min",46731 and 44912 and 46760
same,Fluorescence intensity,"[3]; 8 × MIC, time 10 min",54425 and 53299 and 56314
same,Fluorescence intensity,"[3]; 8 × MIC, time 15 min",62319 and 60472 and 61594
same,Fluorescence intensity,"[3]; 8 × MIC, time 20 min",64747 and 64976 and 65277
same,Fluorescence intensity,"[3]; 8 × MIC, time 25 min",65628 and 65784 and 65550
same,Fluorescence intensity,"[3]; 8 × MIC, time 30 min",65623 and 66146 and 65510
same,Fluorescence intensity,"[3]; 8 × MIC, time 35 min",66248 and 66493 and 66011
same,Fluorescence intensity,"[3]; 8 × MIC, time 40 min",66880
same,Fluorescence intensity,"[3]; MIC, time 0 min",1004 and 1023 and 1031
same,Fluorescence intensity,"[3]; MIC, time 5 min",2234 and 2276 and 2181
same,Fluorescence intensity,"[3]; MIC, time 10 min",3718 and 3745 and 3579
same,Fluorescence intensity,"[3]; MIC, time 15 min",5602 and 5647 and 5393
same,Fluorescence intensity,"[3]; MIC, time 20 min",7978 and 7923 and 7560
same,Fluorescence intensity,"[3]; MIC, time 25 min",10663 and 10527 and 10076
same,Fluorescence intensity,"[3]; MIC, time 30 min",13390 and 13373 and 12886
same,Fluorescence intensity,"[3]; MIC, time 35 min",16041 and 16009 and 15623
same,Fluorescence intensity,"[3]; MIC, time 40 min",18514 and 18484 and 18179
same,time to highest SYTOX Green fluorescence intensity,[3],≤ 40 min
same,"OD450, hemolysis (Fig 2b), replicates",[4]; 6.25 µM,0.01607 (2×) and 0.02078 and 0.0162 (2×) and 0.02093
same,"OD450, hemolysis (Fig 2b), replicates",[4]; 12.5 µM,0.02038 (2×) and 0.02274 and 0.02054 (2×) and 0.02291
same,HC10 (concentration inducing 10% hemolysis),[4],> 100.0 µM
